Assay results as given in patent US12466814B2, “Sterically shielded heptamethine cyanine dyes” (UNIVERSITY OF NOTRE DAME DU LAC, priority 2020, dated 2025).
Several values for one entry are separate records, joined by “and”; a condition that tells them apart may be missing. Equal values may be shown once. Marks after values point to notes of the source that are not given here.

How the values were obtained:
[1] = biological target: T1, bovine serum albumin (BSA) (Bos taurus, UniProt P02769); assay: Albumin binding, dye fluorescence with and without BSA; settings: PBS, presence and absence of BSA (2 μM)
T1 construct: a solution of bovine serum albumin (BSA, 2 μM) at 37° C; purchased
T1 sequence (P02769 25-607): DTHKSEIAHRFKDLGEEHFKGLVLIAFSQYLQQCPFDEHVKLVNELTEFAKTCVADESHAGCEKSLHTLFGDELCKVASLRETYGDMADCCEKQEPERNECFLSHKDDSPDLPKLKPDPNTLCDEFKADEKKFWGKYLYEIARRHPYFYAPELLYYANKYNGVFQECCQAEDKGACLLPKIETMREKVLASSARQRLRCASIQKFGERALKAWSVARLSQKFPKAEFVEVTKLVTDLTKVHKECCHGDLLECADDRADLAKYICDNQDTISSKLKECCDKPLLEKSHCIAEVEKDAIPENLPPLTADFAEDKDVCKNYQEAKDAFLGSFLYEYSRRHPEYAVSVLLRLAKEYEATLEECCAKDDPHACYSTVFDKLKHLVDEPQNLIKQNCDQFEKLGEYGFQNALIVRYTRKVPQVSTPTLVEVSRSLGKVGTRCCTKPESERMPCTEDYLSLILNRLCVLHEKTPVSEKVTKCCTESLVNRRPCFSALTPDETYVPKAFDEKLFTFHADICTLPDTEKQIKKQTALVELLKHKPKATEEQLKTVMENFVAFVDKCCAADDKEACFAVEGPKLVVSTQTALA
Method: The second set of titration experiments measured the fluorescence intensity for samples of 756z and s775z at different concentrations in the presence and absence of BSA (2 μM).

[2] = Dye self-aggregation by absorption/excitation spectra; assay type: physicochemical; settings: in water / aqueous media, absorption spectra
Excerpt: Self-aggregation of heptamethine cyanine dyes is readily indicated by conversion of monomer absorption bands into aggregate bands, in this case blue-shifted H-aggregates.

[3] = Photostability, Xenon lamp irradiation; assay type: physicochemical
Method: FIG. 2. Two separate photostability studies. (a) Lamp irradiation: Four separate cuvettes, each containing 1 μM dye in PBS buffer, pH 7.4, were irradiated by a 150 W Xenon lamp with a 620 nm long-pass filter. The plot of normalized dye absorbance versus time was fit to a one-phase exponential decay. […] The length scale bar on each NIR fluorescence image is 1 cm.
Photostability Measurements. Lamp Irradiation: A solution of dye (1 μM) in PBS buffer, pH 7.4, was placed in a 1×1×4 cm^3 cuvette that was exposed to air and irradiated at a distance of 3 cm by a 150 W Xenon lamp with a 620 nm long-pass filter. An absorbance spectrum was recorded every 10 min. The normalized maximum absorbance of dye was plotted against time and fitted to a non-linear regression, one-phase exponential decay. […] A 1.5 mL vial containing the solution was irradiated at a distance of 3 cm by a 150 W Xenon lamp with a 620 nm long-pass filter.

[4] = meso linkage is not cleaved by biological amines or thiols; cited from earlier work
[5] = Absorption and emission spectral properties of dyes; assay type: physicochemical; settings: for λabs max: monomer (m) band where an aggregate band is also listed
Method: General. Reagents and solvents were purchased from Sigma-Aldrich, VWR, Oakwood, Thermo Fisher and TCI and used without further purification unless stated otherwise. Anhydrous tetrahydrofuran was distilled with metal sodium and benzophenone. Column chromatography was performed using Biotage SNAP Ultra columns. ^1H, ^13C and ROESY NMR spectra were recorded on a Bruker 500 NMR spectrometer. Chemical shifts are presented in ppm and referenced by residual solvent peak. High-resolution mass spectrometry (HRMS) was performed using a time-of-flight (TOF) analyzer with electrospray ionization (ESI). Absorption spectra were recorded on an Evolution 201 UV/vis spectrometer with Thermo Insight software. Fluorescence spectra were collected on a Horiba Fluoromax-4 fluorometer with FluoroEssence software. Analyte solutions were prepared in HPLC grade water (Sigma-Aldrich), phosphate buffered saline (Thermo Fisher), fetal bovine serum (Sigma-Aldrich) or buffer B (575 mM NaCl, 37.5 mM NaH2PO4 and 0.75 mM EDTA in water, pH 7.5). All absorption and fluorescence spectra were collected using quartz cuvettes (1 mL, 1 cm path length; for emission and excitation spectra, slit width=3 nm).

[6] = Quantum yield and fluorescence brightness relative to UL766; assay type: physicochemical
Excerpt: The fluorescence spectrum of each solution was obtained with excitation at 730 nm, and the integrated area was used in the quantum yield calculation by the following equation:
[formula] where η is the refractive index of the solvent, I is the integrated fluorescence intensity, and A is the absorbance at a chosen wavelength. […]

[7] = biological target: T1, bovine serum albumin (BSA); assay: Albumin binding, quenching of BSA tryptophan fluorescence
Method: FIG. 13. […] The relative fluorescence intensity at 335 nm was determined using the following equation, where F0 is the initial fluorescence intensity, F is the fluorescence intensity after each aliquot addition of dye, and the slope of the trend line (m) corresponds to Ka±SD.
Albumin Binding Measurements. Two separate sets of titration experiments were performed. The first set of titration experiments measured quenching of bovine serum albumin (BSA) tryptophan fluorescence as dye was added incrementally. […] After each aliquot addition, the solution was mixed and allowed to equilibrate for 5 min before spectral acquisition.

[8] = Antibody conjugate absorbance and fluorescence; assay type: physicochemical; settings: value used in degree of labeling calculation
Method: Antibody Conjugate Absorbance. Absorbance spectra of goat IgG antibody bioconjugates were collected in buffer B (575 mM NaCl, 37.5 mM NaH2PO4 and 0.75 mM EDTA in water, pH 7.5) using Implen NanoPhotometer NP80. Spectra were normalized to absorbance at 280 nm.
Antibody Conjugate Fluorescence. […] The fluorescence emission spectra were divided by the fluorescence emission intensity at 355 nm (ex: 280 nm, slit width: 2 nm) to obtain corrected spectra that accounts for variations in antibody concentration.

[9] = Water solubility and storage of aqueous stock solutions; assay type: physicochemical; settings: 1 mM in water

With `CC1(C)C(/C=C/C2=C(c3ccc(C(=O)O)cc3)C(=C/C=C3/N(CCC[N+](C)(C)C)c4ccc(S(=O)(=O)O)cc4C3(C)C)/CCC2)=[N+](CCC[N+](C)(C)C)c2ccc(S(=O)(=O)O)cc21` [Dye 756z] the “Effect of BSA on dye fluorescence” value [1] was “no effect on the dye fluorescence”, the Aggregation state [2] was “exists largely as non-fluorescent H-aggregates” and the “k, rate constant of first-order decay” value ([3]; pH 7.4 PBS, 150 W Xenon lamp irradiation, 620 nm long-pass filter, 23° C., 1 μM dye) was 0.00037 s⁻¹. For the same molecule, the Order of photostabilities ([3]; separate cuvettes, dye in PBS, Xenon lamp >620 nm) was “s775z>756z>UL766>ICG”, the Stable to nucleophiles [4] was “Yes” and the “SS (Stokes shift)” value ([5]; 2 μM BSA in pH 7.4 PBS) was 18 nm. The ε ([5]; 2 μM BSA in pH 7.4 PBS) was 107,000 M^−1cm^−1, the “λabs max, aggregate (a) band” value ([5]; 2 μM BSA in pH 7.4 PBS) was 681 (a)/ nm and the λem max ([5]; 2 μM BSA in pH 7.4 PBS) was 773 nm. The λabs max ([5]; 2 μM BSA in pH 7.4 PBS) was 755 (m) nm, the “SS (Stokes shift)” value ([5]; 100% FBS) was 16 nm and the ε ([5]; 100% FBS) was 118,000 M^−1cm^−1. For the same molecule, the “λabs max, aggregate (a) band” value ([5]; 100% FBS) was 682 (a)/ nm, the λem max ([5]; 100% FBS) was 774 nm and the λabs max ([5]; 100% FBS) was 758 (m) nm. For the same molecule, the “SS (Stokes shift)” value ([5]; H2O) was 17 nm, the ε ([5]; H2O) was 56,000 M^−1cm^−1 and the “λabs max, aggregate (a) band” value ([5]; H2O) was 681 (a)/ nm. For the same molecule, the λem max ([5]; H2O) was 773 nm, the λabs max ([5]; H2O) was 756 (m) nm and the “SS (Stokes shift)” value ([5]; PBS pH 7.4) was 17 nm. For the same molecule, the “λabs max, aggregate (a) band” value ([5]; PBS pH 7.4, room temperature) was 681 (a)^[f] nm and 681 (a)/ nm, the λem max ([5]; PBS pH 7.4, room temperature) was 773 nm and the λabs max ([5]; PBS pH 7.4, room temperature) was 756 (m)^[f] nm and 756 (m) nm. For the same molecule, the ε ([5]; PBS pH 7.4, room temperature, monomer band) was 99,000 (0.942)^[b] M^−1cm^−1 and 99,000 M^−1cm^−1, the “Brightness (fluorescence brightness = ε × QY)” value ([6]; PBS pH 7.4, error ±15%) was 9,600 and the QY ([6]; PBS pH 7.4, relative to UL766, error ±10%) was 0.097. The Quantum yield ([6]; pH 7.4 PBS, relative to UL766, error ±10%) was 9.7^[b] %, the “Ka relative to Ka for BSA association with ICG” value [7] was “about 40 times lower” and the “Ka for BSA” value ([7]; BSA 2 μM, 37° C., tryptophan fluorescence quenching) was 16000 M⁻¹. The Dye/BSA affinity ([7]; tryptophan quenching titration) was “weak dye/BSA affinity”, the “ϵmax for the monomer peak” value [8] was 111,000 M^−1 cm^−1 and the “Storage of 1 mM stock solution in water” value [9] was “forms a precipitate after 24 hr”.
